Data published in patent US20050215548A1 (Cyclacel Limited, priority 2002, published 2005).
pIC50: −log10 of the molar value.

Legend:
Type in all cases: cell-based, human
[1] = system: AGS; test: Combination treatment with cisplatin or etoposide, MTT, AGS
Description: It is well established that radiotherapy and most current forms of chemotherapy cause extensive genetic damage and induction of the p53-dependent apoptotic pathway, which determines the important role of this tumor suppressor protein in cancer therapy. HDM2, on the other hand, as a transcriptional product and negative regulator pf p53, would destabilise p53 and diminish its pro-apoptotic function. Inhibitors of the p53-HDM2 negative feedback loop (e.g. compounds disrupting the p53-HDM2 complex) are expected to synergise with cytotoxic agents for induction of p53 and subsequent apoptosis. […] Both chemotherapeutic agents were used in the concentration range of 100-0.19 μM.

[2] = system: key proteins in the HDM2 pathway; test: SDS-PAGE and immunoblotting of key proteins in the HDM2 pathway
Description: Equal amounts of cell lysate were separated by SDS-PAGE and analysed by immunoblotting using the indicated antibodies. An estimation of the extent of cell rounding is indicated above each lane. […] (B) The effect of compound 2 on the levels of the cell cycle proteins in AGS cells (wild-type 53). […] Equal amounts of cell lysate were separated by SDS-PAGE and analysed by immunoblotting using the indicated antibodies. An estimation of the extent of cell rounding is indicated above each lane. (C) The effect of negative control compound (refer Example 10), compound 2, cisplatin, and anisomycin on the levels of key proteins in MCF7 cells. […] Cisplatinum and anisomycin (a transcription inhibitor) treatments were with 50 μM or 37 μM, respectively. Cells were harvested at various time points; afterwards lysates were prepared and separated by SDS-PAGE and analysed by immunoblotting. The proteins detected are indicated. The extent of rounded or floating cells and the percentage viable cells were assessed. […] Equal amounts of cell lysate were separated by SDS-PAGE and analysed by immunoblotting using a range of antibodies. An estimation of the extent of cell rounding is indicated above each lane. […] SJSA1 cells were treated with 5 times [IC50] of compound 2 and collected at the indicated time points. Equal amounts of cell lysate were separated by SDS-PAGE and analysed by immunoblotting using a range of antibodies. An estimation of the extent of cell rounding is indicated above each lane.
Many types of cellular stress converge on the p53 pathway and induce its activity. […] The biological effect of bisarylsufonamides on cellular level was studies using representative compounds (mainly compound 2) and number of cell lines with different HDM2 and p53 status. These were overexpressing Hdm2 (SJSA1—osteosarcoma), wild type p53 and normal levels of HDM2 (AGS—gastric adenocarcinoma, MCF7—breast adenocarcinoma), or p53 null, low levels of HDM2 (H1299—large cell lung carcinoma).
Cells were lysed and equal amounts were analysed by SDS-polyacrylamide gel electrophoresis (SDS-PAGE) and immunoblotting.

[3] = system: AGS, H1299, MCF7 or SJSA1 cells; test: Cell morphology (cell rounding); settings: five times IC50
Description: Equal amounts of cell lysate were separated by SDS-PAGE and analysed by immunoblotting using the indicated antibodies. An estimation of the extent of cell rounding is indicated above each lane. The arrow indicates the position of a 85-kDa cleavage product of PARP, indicative of apoptosis. (B) The effect of compound 2 on the levels of the cell cycle proteins in AGS cells (wild-type 53). […] Equal amounts of cell lysate were separated by SDS-PAGE and analysed by immunoblotting using the indicated antibodies. An estimation of the extent of cell rounding is indicated above each lane. (C) The effect of negative control compound (refer Example 10), compound 2, cisplatin, and anisomycin on the levels of key proteins in MCF7 cells. […] Cisplatinum and anisomycin (a transcription inhibitor) treatments were with 50 μM or 37 μM, respectively. Cells were harvested at various time points; afterwards lysates were prepared and separated by SDS-PAGE and analysed by immunoblotting. The proteins detected are indicated. The extent of rounded or floating cells and the percentage viable cells were assessed. […] Equal amounts of cell lysate were separated by SDS-PAGE and analysed by immunoblotting using a range of antibodies. An estimation of the extent of cell rounding is indicated above each lane. […] SJSA1 cells were treated with 5 times [IC50] of compound 2 and collected at the indicated time points. Equal amounts of cell lysate were separated by SDS-PAGE and analysed by immunoblotting using a range of antibodies. An estimation of the extent of cell rounding is indicated above each lane.
Cells were treated with 5 times [IC50] of compound 2 and collected at various time points. The percentage of rounded cells was counted before cells were trypsinised and counted for cell viability using trypan blue.
Cells were lysed and equal amounts were analysed by SDS-polyacrylamide gel electrophoresis (SDS-PAGE) and immunoblotting. […] The reduction in E2F-1 levels correlated with reduction in E2F transcriptional activity as determined by an E2F-dependent luciferase reporter assay (refer Example 6).

[4] = system: MCF7 or H1299 cells; test: Cell cycle distribution, propidium iodide flow cytometry; settings: 5 times IC50
Method: Cells were stained with propidium iodide and the cell cycle position was determined using a flow cytometer.

[5] = system: AGS cells; test: Caspase activity (casp ACE assay), AGS; settings: five times the IC50, compared with cisplatin treatment
Method: In more detail: (A) Cells were treated with […] [IC50] of compound 2 or cisplatinum and collected at the time points indicated. Cell lysates were prepared, the caspase activity was determined using the casp ACE assay and values were plotted on a graph. (B) Cells were treated with 5 times [IC50] of compound 2 or cisplatinum and collected at the time points indicated. AGS cells were also incubated with compound 2 in the presence of a caspase inhibitor Z-VAD.fmk. Cell lysates were prepared, the caspase activity was determined using the casp ACE assay and values were plotted on a graph.
To characterise the apoptosis-inducing properties of bisarylsulfonamides caspase ⅓ activty was measured. AGS or H1299 cells were treated with a low concentration of compound 2 or cisplatin corresponding to twice the IC50 value (FIG. 6A). Morphological changes were detected in 10-20% of cells by 72 hours corresponding to an induction of caspase activity first detected at 48 hours, increasing by 72 hours. We also treated AGS and H1299 cells with higher concentrations corresponding to five times the IC50 (FIG. 6B). In this experiment we included a […], Z-VAD.fmk to determine the caspase responsible.

- IC50 of etoposide, fold lower in cells pre-treated with 2 ([1]; 2 added 6 hours before etoposide): 3.5 fold
- pIC50 ([1]; Homo sapiens, MTT, 72 hours, Table 5, read-out: IC50, agent alone): 5.96
SMILES: O=[N+]([O-])c1cc(S(=O)(=O)Nc2ccc(Cl)cc2)sc1Cl [Compound 2, 5-Chloro-4-nitrothiophene-2-sulfonic acid (4-chlorophenyl)-amide]
- potency increase of cisplatin ([1]; 2 added prior to the treatment with cisplatin): 18.5 fold
- HDM2 and E2F-1 protein levels ([2]; AGS, H1299, MCF7 or SJSA1 cells, five times the anti-proliferative IC50): rapid reduction in HDM2 and E2F-1 levels
- JNK phosphorylation ([2]; MCF7 cells): transient induction in JNK phosphorylation
- p38 MAPK pathway induction ([2]; MCF7 cells): no clear induction of the p38 MAPK pathway
- p53 level and p53 phosphorylation at serine 15 ([2]; compound 2: AGS, H1299, MCF7 or SJSA1 cells, etoposide or cisplatinum: AGS or MCF7 cells): no induction of p53 nor p53 phosphorylation at serine 15
- PARP cleavage / PARP levels ([2]; five times IC50, 85-kDa cleavage product marker for apoptosis): very rapid in H1299 cells but less so in AGS, MCF7 or SJSA1 cells
- cell rounding [3]: Rapid cell rounding was detected in all cell types tested
- cell cycle arrest [4]: no detectable arrest at any phase of the cell cycle
- sub-G1 cells, indicative of apoptosis [4]: induced sub-G1 cells
- caspase activity [5]: only weak caspase activity was induced by 24 hours
